21 compounds from patent publication US10745382B2 (BRISTOL-MYERS SQUIBB COMPANY, priority 2015, dated 2020) can be followed below.

For orientation: IC50 means the concentration that inhibits the measured activity by half.

The target of the experiment is T1, PD-1/PD-L1 (Homo sapiens, UniProt Q9NZQ7).
T1 construct: made in house; host or cells: HEK293T
The experiment is described as follows: PD-1/PD-L1 Homogenous Time-Resolved Fluorescence (HTRF) binding assay. The note with it: PD-L1-His 10 nM, PD-1-Ig 20 nM; value given as range class; read-out: Range or IC50. The method, boiled down: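 Binding was measured by HTRF in dPBS with 0.1% BSA and 0.05% Tween-20. Detection used europium cryptate anti-Ig (1 nM final) and APC anti-His (20 nM final) added over the binding reaction.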
Background: In TR-FRET formats the signal depends on donor and acceptor labels being close together.

T1 sequence (Q9NZQ7 with tags, fused parts or gaps): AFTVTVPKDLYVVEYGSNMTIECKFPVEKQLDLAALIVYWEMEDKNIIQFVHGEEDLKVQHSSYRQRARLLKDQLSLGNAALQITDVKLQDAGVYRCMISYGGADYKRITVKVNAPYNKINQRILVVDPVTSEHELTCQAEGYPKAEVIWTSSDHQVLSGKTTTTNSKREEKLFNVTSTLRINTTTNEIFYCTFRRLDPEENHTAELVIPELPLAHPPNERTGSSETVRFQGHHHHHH

As to `Cc1c(COc2cc(OCc3cncc(C#N)c3)c(CNC[C@H](O)CO)cc2Cl)cccc1-c1cccc(OCCCN(C)CCC(N)=O)c1Cl` [Example 2032, (S)-3-((3-((2-chloro-3′-((2-chloro-5-((5-cyanopyridin-3-yl)methoxy)-4-(((2,3-dihydroxypropyl)amino)methyl)phenoxy)methyl)-2′-methyl-[1,1′-biphenyl]-3-yl)oxy)propyl)(methyl)amino)propanamide], the half-maximal inhibitory concentration (IC50) was in the range of 0.21 to 10 nM.

Take `N#Cc1cncc(COc2cc(OCc3cccc(-c4cccc(OCCCNC[C@H](O)CO)c4Cl)c3Cl)c(Cl)cc2CNC[C@H](O)CO)c1` [Example 2033, 5-((4-chloro-5-((2,2′-dichloro-3′-(3-(((S)-2,3-dihydroxypropyl)amino)propoxy)-[1,1′-biphenyl]-3-yl)methoxy)-2-((((S)-2,3-dihydroxypropyl)amino)methyl)phenoxy)methyl)nicotinonitrile]: the half-maximal inhibitory concentration (IC50) was in the range of 0.21 to 10 nM.

`N#Cc1cncc(COc2cc(OCc3cccc(-c4cccc(OCCCN5CC[C@@H](O)C5)c4Cl)c3Cl)c(Cl)cc2CNC[C@H](O)CO)c1` [Example 2034, 5-((4-chloro-5-((2,2′-dichloro-3′-(3-((R)-3-hydroxypyrrolidin-1-yl)propoxy)-[1,1′-biphenyl]-3-yl)methoxy)-2-((((S)-2,3-dihydroxypropyl)amino)methyl)phenoxy)methyl)nicotinonitrile]: the IC50 lay within 0.21 to 10 nM.

For `Cc1c(COc2cc(OCc3cncc(C#N)c3)c(CNC(CO)CO)cc2Cl)cccc1-c1cccc(OCCCN2CC[C@@H](O)C2)c1Cl` [Example 2035, (R)-5-((4-chloro-5-((2′-chloro-3′-(3-(3-hydroxypyrrolidin-1-yl)propoxy)-2-methyl-[1,1′-biphenyl]-3-yl)methoxy)-2-(((1,3-dihydroxypropan-2-yl)amino)methyl)phenoxy)methyl)nicotinonitrile], the IC50 lay in the range of 0.21 to 10 nM.

Regarding `Cc1c(COc2cc(OCc3cncc(C#N)c3)c(CNC(CO)CO)cc2Cl)cccc1-c1cccc(OCCCNC[C@H](O)CO)c1Cl` [Example 2036, (S)-5-((4-chloro-5-((2′-chloro-3′-(3-((2,3-dihydroxypropyl)amino)propoxy)-2-methyl-[1,1′-biphenyl]-3-yl)methoxy)-2-(((1,3-dihydroxypropan-2-yl)amino)methyl)phenoxy)methyl)nicotinonitrile], the IC50 was in the range of 0.21 to 10 nM.

Take `Cc1c(COc2cc(OCc3cncc(C#N)c3)c(CNC(CO)CO)cc2Cl)cccc1-c1cccc(OCCCNCCc2cccnc2)c1Cl` [Example 2037, 5-((4-chloro-5-((2′-chloro-2-methyl-3′-(3-((2-(pyridin-3-yl)ethyl)amino)propoxy)-[1,1′-biphenyl]-3-yl)methoxy)-2-(((1,3-dihydroxypropan-2-yl)amino)methyl)phenoxy)methyl)nicotinonitrile]: the IC50 was 0.21 to 10 nM.

Take `Cc1c(COc2cc(OCc3cncc(C#N)c3)c(CN[C@](C)(CO)C(=O)O)cc2Cl)cccc1-c1cccc(OCCCNC(CO)CO)c1Cl` [Example 2038, (R)-2-((5-chloro-4-((2′-chloro-3′-(3-((1,3-dihydroxypropan-2-yl)amino)propoxy)-2-methyl-[1,1′-biphenyl]-3-yl)methoxy)-2-((5-cyanopyridin-3-yl)methoxy)benzyl)amino)-3-hydroxy-2-methylpropanoic Acid]: the half-inhibitory concentration (IC50) is 0.21 to 10 nM.

In the case of `Cc1c(COc2cc(OCc3cncc(C#N)c3)c(CO)cc2Cl)cccc1-c1cccc(OCCCNC(CO)CO)c1Cl` [Example 2039, 5-((4-chloro-5-((2′-chloro-3′-(3-((1,3-dihydroxypropan-2-yl)amino)propoxy)-2-methyl-[1,1′-biphenyl]-3-yl)methoxy)-2-(hydroxymethyl)phenoxy)methyl)nicotinonitrile], the IC50 fell in the range of 0.21 to 10 nM.

For the compound `Cc1c(COc2cc(OCc3cncc(C#N)c3)c(CN[C@](C)(CO)C(=O)O)cc2Cl)cccc1-c1cccc(OCCCNC(CO)(CO)CO)c1Cl` [Example 2040, (R)-2-((5-chloro-4-((2′-chloro-3′-(3-((1,3-dihydroxy-2-(hydroxymethyl)propan-2-yl)amino)propoxy)-2-methyl-[1,1′-biphenyl]-3-yl)methoxy)-2-((5-cyanopyridin-3-yl)methoxy)benzyl)amino)-3-hydroxy-2-methylpropanoic Acid], the half-maximal inhibitory concentration (IC50) is 0.21 to 10 nM.

With `Cc1c(COc2cc(OCc3cncc(C#N)c3)c(CO)cc2Cl)cccc1-c1cccc(OCCCNC(CO)(CO)CO)c1Cl` [Example 2041, 5-((4-chloro-5-((2′-chloro-3′-(3-((1,3-dihydroxy-2-(hydroxymethyl)propan-2-yl)amino)propoxy)-2-methyl-[1,1′-biphenyl]-3-yl)methoxy)-2-(hydroxymethyl)phenoxy)methyl)nicotinonitrile], the IC50 is 10 to 100 nM.

`Cc1c(COc2cc(OCc3cncc(C#N)c3)c(CNC(CO)CO)cc2Cl)cccc1-c1cccc(OCCCNC(CO)CO)c1Cl` [Example 2042, 5-((4-chloro-5-((2′-chloro-3′-(3-((1,3-dihydroxypropan-2-yl)amino)propoxy)-2-methyl-[1,1′-biphenyl]-3-yl)methoxy)-2-(((1,3-dihydroxypropan-2-yl)amino)methyl)phenoxy)methyl)nicotinonitrile]: the half-inhibitory concentration (IC50) lay in the range of 0.21 to 10 nM.

With `Cc1c(COc2cc(OCc3cncc(C#N)c3)c(CN[C@](C)(CO)C(=O)O)cc2Cl)cccc1-c1cccc(OCCCN2CCCC(CO)C2)c1Cl` (stereo partly drawn) [Example 2043, (2R)-2-((5-chloro-4-((2′-chloro-3′-(3-(3-(hydroxymethyl)piperidin-1-yl)propoxy)-2-methyl-[1,1′-biphenyl]-3-yl)methoxy)-2-((5-cyanopyridin-3-yl)methoxy)benzyl)amino)-3-hydroxy-2-methylpropanoic Acid], the half-maximal inhibitory concentration (IC50) is 0.21 to 10 nM.

With `Cc1c(COc2cc(OCc3cncc(C#N)c3)c(CO)cc2Cl)cccc1-c1cccc(OCCCN2CCCC(CO)C2)c1Cl` (stereo not drawn) [Example 2044, 5-((4-chloro-5-((2′-chloro-3′-(3-(3-(hydroxymethyl)piperidin-1-yl)propoxy)-2-methyl-[1,1′-biphenyl]-3-yl)methoxy)-2-(hydroxymethyl)phenoxy)methyl)nicotinonitrile], the IC50 is 0.21 to 10 nM.

Consider `N#Cc1cncc(COc2cc(OCc3cccc(-c4cccc(OCCCN5CCCCC5)c4Cl)c3Cl)c(Cl)cc2CN2CCCC[C@H]2C(=O)O)c1` [Example 2045, (S)-1-(5-chloro-2-((5-cyanopyridin-3-yl)methoxy)-4-((2,2′-dichloro-3′-(3-(piperidin-1-yl)propoxy)-[1,1′-biphenyl]-3-yl)methoxy)benzyl)piperidine-2-carboxylic Acid], for which the IC50 fell in the range of 0.21 to 10 nM.

In the case of `N#Cc1cncc(COc2cc(OCc3cccc(-c4cccc(OCCCN5CCCCC5)c4Cl)c3Cl)c(Cl)cc2CO)c1` [Example 2046, 5-((4-chloro-5-((2,2′-dichloro-3′-(3-(piperidin-1-yl)propoxy)-[1,1′-biphenyl]-3-yl)methoxy)-2-(hydroxymethyl)phenoxy)methyl)nicotinonitrile], the 50% inhibitory concentration (IC50) lay within 0.21 to 10 nM.

In the case of `CC(=O)NC1CCN(CCCOc2cccc(-c3cccc(COc4cc(OCc5cncc(C#N)c5)c(CN5CCCC[C@H]5C(=O)O)cc4Cl)c3Cl)c2Cl)C1` (stereo partly drawn) [Example 2047, (2S)-1-(4-((3′-(3-(3-acetamidopyrrolidin-1-yl)propoxy)-2,2′-dichloro-[1,1′-biphenyl]-3-yl)methoxy)-5-chloro-2-((5-cyanopyridin-3-yl)methoxy)benzyl)piperidine-2-carboxylic Acid], the IC50 fell in the range of 0.21 to 10 nM.

`Cc1c(COc2cc(OCc3cncc(C#N)c3)c(CN[C@](C)(CO)C(=O)O)cc2Cl)cccc1-c1cccc(OCCCNC[C@H](O)CO)c1Cl` [Example 2048, (R)-2-((5-chloro-4-((2′-chloro-3′-(3-(((S)-2,3-dihydroxypropyl)amino)propoxy)-2-methyl-[1,1′-biphenyl]-3-yl)methoxy)-2-((5-cyanopyridin-3-yl)methoxy)benzyl)amino)-3-hydroxy-2-methylpropanoic Acid]: the concentration for half-maximal inhibition (IC50) was in the range of 0.21 to 10 nM.

With `N#Cc1cncc(COc2cc(OCc3cccc(-c4cccc(OCCCNC[C@H](O)CO)c4Cl)c3Cl)c(Cl)cc2CN2CCCC[C@H]2C(=O)O)c1` [Example 2049, (S)-1-(5-chloro-2-((5-cyanopyridin-3-yl)methoxy)-4-((2,2′-dichloro-3′-(3-(((S)-2,3-dihydroxypropyl)amino)propoxy)-[1,1′-biphenyl]-3-yl)methoxy)benzyl)piperidine-2-carboxylic Acid], the 50% inhibitory concentration (IC50) fell in the range of 0.21 to 10 nM.

Regarding `Cc1c(COc2cc(OCc3cncc(C#N)c3)c(CNC(CO)CO)cc2Cl)cccc1-c1cccc(OCCCN(C)C[C@H](O)CO)c1Cl` [Example 2050, (S)-5-((4-chloro-5-((2′-chloro-3′-(3-((2,3-dihydroxypropyl)(methyl)amino)propoxy)-2-methyl-[1,1′-biphenyl]-3-yl)methoxy)-2-(((1,3-dihydroxypropan-2-yl)amino)methyl)phenoxy)methyl)nicotinonitrile], the half-maximal inhibitory concentration (IC50) was in the range of 0.21 to 10 nM.

Consider `Cc1c(COc2cc(OCc3cncc(C#N)c3)c(CNC(CO)CO)cc2Cl)cccc1-c1cccc(OCCCN2CCCCC2)c1Cl` [Example 2051, 5-((4-chloro-5-((2′-chloro-2-methyl-3′-(3-(piperidin-1-yl)propoxy)-[1,1′-biphenyl]-3-yl)methoxy)-2-(((1,3-dihydroxypropan-2-yl)amino)methyl)phenoxy)methyl)nicotinonitrile], for which the 50% inhibitory concentration (IC50) was in the range of 0.21 to 10 nM.

As for `CC(=O)NC1CCN(CCCOc2cccc(-c3cccc(COc4cc(OCc5cncc(C#N)c5)c(CNC(CO)CO)cc4Cl)c3C)c2Cl)C1` (stereo not drawn) [Example 2052, N-(1-(3-((2-chloro-3′-((2-chloro-5-((5-cyanopyridin-3-yl)methoxy)-4-(((1,3-dihydroxypropan-2-yl)amino)methyl)phenoxy)methyl)-2′-methyl-[1,1′-biphenyl]-3-yl)oxy)propyl)pyrrolidin-3-yl)acetamide], the IC50 was 0.21 to 10 nM.
